Key:
serum phosphate = experiment: Pharmacodynamics: serum phosphate; assay type: in vivo, human; details: consequence of FGFR inhibition
Description: To manage phosphate elevation, phosphate binders were permitted. Avoid concomitant use with agents that can alter serum phosphate levels before the initial dose increase period based on serum phosphate levels.

[1] = Excretion after single oral dose of radiolabeled erdafitinib; assay type: in vivo
QTc interval = details: 187 patients with cancer
[2] = tested on: metastatic or surgically unresectable urothelial cancer harboring select FGFR genetic alterations; experiment: Phase 2 study NCT02365597: progression-free survival (Kaplan-Meier), investigator assessment; assay type: in vivo, human
Procedure: The term “progression-free survival” is defined as the time from first dose to date of documented evidence of disease progression or death, whichever comes first.
Patients were contacted every 12 weeks for survival assessment.
The study was designed to enroll 180 patients with specified FGFR alterations. Of these, ≥88 were required in the selected regimen. […] Responses were assessed by investigators and an independent radiological review committee. Progression-free survival and overall survival were estimated using Kaplan-Meier product limit method. Data from patients who were progression free and alive or with unknown status were censored at last tumor assessment. Efficacy end points were analysed at primary analysis cut-off.

[3] = FGFR fusions (excluding mutations), 6 mg QD
[4] = FGFR fusions (excluding mutations), 8 mg QD
[5] = FGFR fusions (excluding mutations), 10 mg 7 on/7 off
[6] = FGFR fusions (excluding mutations), Total
[7] = FGFR mutations (excluding fusions), 6 mg QD
[8] = FGFR mutations (excluding fusions), 8 mg QD
[9] = FGFR mutations (excluding fusions), 10 mg 7 on/7 off
[10] = FGFR mutations (excluding fusions), Total
[11] = FGFR mutations and fusions, 6 mg QD
[12] = FGFR mutations and fusions, 10 mg 7 on/7 off
[13] = FGFR mutations and fusions, Total

With `COc1cc(OC)cc(N(CCNC(C)C)c2ccc3ncc(-c4cnn(C)c4)nc3c2)c1` [erdafitinib, N-(3,5-dimethoxy-phenyl)-N′-(1-methylethyl)-N-[3-(1-methyl-1H-pyrazol-4-yl)quinoxalin-6-yl]ethane-1,2-diamine] the “effect on serum phosphate level” value (serum phosphate) was “increased serum phosphate level”, the “dose recovered in feces” value [1] was “approximately 69%” and the “dose recovered in feces as unchanged” value [1] was 19%. For the same molecule, the “dose recovered in urine” value [1] was 19%, the “dose recovered in urine as unchanged” value [1] was 13% and the “effect on the QTc interval” value (QTc interval) was “no large effect (i.e., >20 ms)”. The “6-month progression-free survival rate (95% CI)” value [2, 3] was 0.40 (0.12, 0.67), the “12-month progression-free survival rate (95% CI)” value [2, 3] was 0.20 (0.03, 0.47) and the “18-month progression-free survival rate (95% CI)” value [2, 3] was 0.10 (0.01, 0.36). The “Progression-free survival, Median (95% CI)” value [2, 3] was 5.54 (0.46, 11.10) months, the “Progression-free survival, Q1” value [2, 3] was 4.50 months and the “6-month progression-free survival rate (95% CI)” value [2, 4] was 0.25 (0.10, 0.44). For the same molecule, the “12-month progression-free survival rate (95% CI)” value [2, 4] was 0.15 (0.04, 0.33), the “18-month progression-free survival rate (95% CI)” value [2, 4] was 0 (NE, NE) and the “Progression-free survival, Median (95% CI)” value [2, 4] was 2.76 (1.51, 5.45) months. The “Progression-free survival, Q1” value [2, 4] was 1.35 months, the “Progression-free survival, Q3” value [2, 4] was 6.64 months and the “6-month progression-free survival rate (95% CI)” value [2, 5] was 0 (NE, NE). The “12-month progression-free survival rate (95% CI)” value [2, 5] was 0 (NE, NE), the “18-month progression-free survival rate (95% CI)” value [2, 5] was 0 (NE, NE) and the “Progression-free survival, Median (95% CI)” value [2, 5] was 2.09 (1.41, 2.76) months. For the same molecule, the “Progression-free survival, Q1” value [2, 5] was 1.41 months, the “Progression-free survival, Q3” value [2, 5] was 2.76 months and the “6-month progression-free survival rate (95% CI)” value [2, 6] was 0.28 (0.15, 0.44). The “12-month progression-free survival rate (95% CI)” value [2, 6] was 0.15 (0.05, 0.29), the “18-month progression-free survival rate (95% CI)” value [2, 6] was 0.05 (0.00, 0.19) and the “Progression-free survival, Median (95% CI)” value [2, 6] was 4.27 (2.56, 5.52) months. For the same molecule, the “Progression-free survival, Q1” value [2, 6] was 1.51 months, the “Progression-free survival, Q3” value [2, 6] was 7.00 months and the “6-month progression-free survival rate (95% CI)” value [2, 7] was 0.22 (0.12, 0.33). The “12-month progression-free survival rate (95% CI)” value [2, 7] was 0.07 (0.02, 0.16), the “18-month progression-free survival rate (95% CI)” value [2, 7] was 0.05 (0.01, 0.14) and the “Progression-free survival, Median (95% CI)” value [2, 7] was 5.09 (2.83, 5.42) months. The “Progression-free survival, Q1” value [2, 7] was 1.77 months, the “Progression-free survival, Q3” value [2, 7] was 5.55 months and the “6-month progression-free survival rate (95% CI)” value [2, 8] was 0.41 (0.29, 0.53). The “12-month progression-free survival rate (95% CI)” value [2, 8] was 0.15 (0.06, 0.27), the “Progression-free survival, Median (95% CI)” value [2, 8] was 5.55 (4.83, 7.26) months and the “Progression-free survival, Q1” value [2, 8] was 2.83 months. For the same molecule, the “Progression-free survival, Q3” value [2, 8] was 8.44 months, the “6-month progression-free survival rate (95% CI)” value [2, 9] was 0.25 (0.10, 0.43) and the “12-month progression-free survival rate (95% CI)” value [2, 9] was 0.17 (0.05, 0.34). For the same molecule, the “18-month progression-free survival rate (95% CI)” value [2, 9] was 0.08 (0.01, 0.23), the “Progression-free survival, Median (95% CI)” value [2, 9] was 4.93 (2.73, 5.55) months and the “Progression-free survival, Q1” value [2, 9] was 2.69 months. For the same molecule, the “Progression-free survival, Q3” value [2, 9] was 7.06 months, the “6-month progression-free survival rate (95% CI)” value [2, 10] was 0.31 (0.24, 0.39) and the “12-month progression-free survival rate (95% CI)” value [2, 10] was 0.12 (0.07, 0.19). For the same molecule, the “18-month progression-free survival rate (95% CI)” value [2, 10] was 0.06 (0.03, 0.12), the “Progression-free survival, Median (95% CI)” value [2, 10] was 5.36 (4.21, 5.52) months and the “Progression-free survival, Q1” value [2, 10] was 2.73 months. For the same molecule, the “Progression-free survival, Q3” value [2, 10] was 8.25 months, the “6-month progression-free survival rate (95% CI)” value [2, 11] was 0.50 (0.06, 0.84) and the “12-month progression-free survival rate (95% CI)” value [2, 11] was 0.50 (0.06, 0.84). The “Progression-free survival, Median (95% CI)” value [2, 11] was 9.10 (0.39, NE) months, the “Progression-free survival, Q1” value [2, 11] was 2.97, NE months and the “6-month progression-free survival rate (95% CI)” value [2, 12] was 0 (NE, NE). For the same molecule, the “12-month progression-free survival rate (95% CI)” value [2, 12] was 0 (NE, NE), the “18-month progression-free survival rate (95% CI)” value [2, 12] was 0 (NE, NE) and the “Progression-free survival, Median (95% CI)” value [2, 12] was 5.45 (1.45, 5.52) months. The “Progression-free survival, Q1” value [2, 12] was 1.45 months, the “Progression-free survival, Q3” value [2, 12] was 5.52 months and the “6-month progression-free survival rate (95% CI)” value [2, 13] was 0.29 (0.04, 0.61). The “12-month progression-free survival rate (95% CI)” value [2, 13] was 0.29 (0.04, 0.61), the “Progression-free survival, Median (95% CI)” value [2, 13] was 5.52 (0.39, 12.65) months and the “Progression-free survival, Q1” value [2, 13] was 1.45 months. The “Progression-free survival, Q3” value [2, 13] was 12.65 months, the “Median (95% CI) progression-free survival per investigator assessment” value ([2]; Regimen 1, 10 mg intermittent) was 4.8 (2.7 to 5.5) months and the “Progression-free survival rate at 12 months” value ([2]; Regimen 1, 10 mg intermittent) was 18%. The “Median (95% CI) progression-free survival per investigator assessment” value ([2]; Regimen 2, 6 mg continuous) was 5.3 (4.1 to 5.5) months, the “Progression-free survival rate at 12 months” value ([2]; Regimen 2, 6 mg continuous) was 11% and the “Progression-free survival rate at 12 months” value ([2]; Regimen 3, 8 mg continuous) was 19%. For the same molecule, the median progression-free survival ([2]; Regimen 3, 8 mg continuous) was 5.5 months.

— US12691112B2, “FGFR tyrosine kinase inhibitors for the treatment of urothelial carcinoma” (Janssen Pharmaceutica NV, priority 2019, dated 2026)
